Laboratory results: patent US5985824A, “Methods and compositions for treating cystic fibrosis” (priority 1997, dated 1999)
Entries after “also recorded” stand apart in the source; their conditions may differ.

Columns and labels:
[1] = tested on: ΔF508-CFTR (LLCPK1-ΔF508 cells); test: SPQ assay, cAMP-stimulated Cl- channel activity, LLCPK1-ΔF508 cells; format: cell-based
Protocol: (§1) The cAMP-dependent CFTR Cl^- channel activity was assessed using the halide-sensitive fluorophore 6-methoxy-N-(3-sulfopropyl)-quinolinium (SPQ) essentially as described previously (Cheng et al., (1995), supra.; Marshall et al., supra.). Briefly, the cells were treated with different amounts of DSG for the times specified. At the end of the treatment period, the cells were loaded with SPQ by hypotonic shock for 4 min at room temperature. SPQ fluorescence initially was quenched by incubating the cells for up to 30 min in a NaI buffer (135 mM NaI, 2.4 mM K2 HPO4, 0.6 mM KH2 PO4, 1 mM MgSO4, 1 mM CaSO4, 10 mM dextrose, and 10 mM N-2 hydroxyethylpiperazine-N'2-ethanesulfonic acid, pH 7.4). After measuring the baseline fluorescence (Fo) for 2 min., the NaI solution was replaced with one containing 135 mM NaNO3, and fluorescence was measured for another 16 min. […]
(§2) An increase in halide permeability is reflected by a more rapid increase in SPQ fluorescence. […] Differences in absolute levels reflect quantitative differences between groups in SPQ loading, size of cells, or number of cells studied. The data are presented as means± SE of fluorescence at time t (Ft) minus the baseline fluorescence (Fo, the average fluorescence measured in the presence of I^- for 2 min. before ion substitution) and are representative of results obtained under each condition. […]

[2] = tested on: ΔF508-CFTR (C127-ΔF508-low cells); test: SPQ halide efflux assay, cAMP-stimulated Cl- channel activity, C127-ΔF508-low cells; format: cell-based
Protocol: (§3) The cAMP-dependent CFTR Cl^- channel activity was assessed using the halide-sensitive fluorophore 6-methoxy-N-(3-sulfopropyl)-quinolinium (SPQ) essentially as described previously (Cheng et al., (1995), supra.; Marshall et al., supra.). Briefly, the cells were treated with different amounts of DSG for the times specified. At the end of the treatment period, the cells were loaded with SPQ by hypotonic shock for 4 min at room temperature. SPQ fluorescence initially was quenched by incubating the cells for up to 30 min in a NaI buffer (135 mM NaI, 2.4 mM K2 HPO4, 0.6 mM KH2 PO4, 1 mM MgSO4, 1 mM CaSO4, 10 mM dextrose, and 10 mM N-2 hydroxyethylpiperazine-N'2-ethanesulfonic acid, pH 7.4). After measuring the baseline fluorescence (Fo) for 2 min., the NaI solution was replaced with one containing 135 mM NaNO3, and fluorescence was measured for another 16 min. Forskolin (20 μM) and 3-isobutyl-1-methyl-xanthine (IBMX) (100 μM) were added 5 min after the anion substitution to increase intracellular levels of cAMP.
(§4) An increase in halide permeability is reflected by a more rapid increase in SPQ fluorescence. It is the rate of change rather than the absolute change in signal that is the important variable in evaluating anion permeability. Differences in absolute levels reflect quantitative differences between groups in SPQ loading, size of cells, or number of cells studied. The data are presented as means± SE of fluorescence at time t (Ft) minus the baseline fluorescence (Fo, the average fluorescence measured in the presence of I^- for 2 min. before ion substitution) and are representative of results obtained under each condition.
For each experiment, between 50 to 100 cells were examined on a given day and studies under each condition were repeated on at least two days. For each experiment, the responses were compared with those obtained with control or untreated cells. […] Under the conditions specified above, control cells were unresponsive to added cAMP agonists. There was a broad spectrum in the rate of change in SPQ fluorescence observed with responsive cells. Normally, cells were scored as responsive if they generated a minimum of a […] change in the rate of increase in SPQ fluorescence following stimulation with cAMP agonists. Because the response was heterogenous, the data shown are for the 10% of cells in each experiment showing the greatest response.
A bovine-papilloma virus based eukaryotic expression vector (pBPV-CFTR-ΔF508) containing the gene for ΔF508 CFTR and neomycin resistance were transfected into C127 cells. The C127 cells are murine mammary cells which were obtained from ATCC (#CRL 1616). The expression of the mutant ΔF508 protein and neomycin was driven using a metallothionein promoter. Following transfection, clonal cells resistant to G418 were isolated and cells expressing the mutant ΔF508 protein were subsequently identified using antibodies specific for CFTR (mAb-13-1). The cells expressing the mutant ΔF508 CFTR protein were maintained in Dulbecco's modified eagle media (DMEM) supplemented with glutamine and fetal calf serum.
(§5) C127-ΔF508-low (mouse mammary tumor) is a recombinant cell line stably transfected with the cDNA encoding the mutant ΔF508-CFTR (Cheng et al. (1995), supra.; Marshall et al. (1994), J. Biol. Chem. 269: 2987-2995). […] C127-mock is a cell line that has been stably transfected with the backbone of the expression vector used to generate C127-ΔF508-low (Cheng et al. (1995), supra.). LLCPK1 -ΔF508 (pig kidney epithelial) is a recombinant cell line stably expressing low levels of the mutant ΔF508-CFTR protein (Marshall et al., supra.). The details of the generation, characterization and routine propagation of these cell lines has been described (Cheng et al. (1995), supra.; Marshall et al., supra.).
Cells were treated with up to 100 μg/ml of DSG for up to 72 h. Concentrations of DSG >50 μg/ml were toxic to most of the cell types tested. […]

[3] = tested on: ΔF508-CFTR (C127-ΔF508-low cells); test: as above; format: cell-based; conditions: FIG. 1E
[4] = tested on: ΔF508-CFTR (JME/CF15 cells); test: SPQ assay, cAMP-stimulated Cl- channel activity, JME/CF15 cells; format: cell-based, human
Protocol: as §3, §4
For each experiment, between 50 to 100 cells were examined on a given day and studies under each condition were repeated on at least two days. […] There was a broad spectrum in the rate of change in SPQ fluorescence observed with responsive cells. Normally, cells were scored as responsive if they generated a minimum of a […] change in the rate of increase in SPQ fluorescence following stimulation with cAMP agonists. […]

[5] = toxicity of DSG to C127-ΔF508-low cells; format: cell-based, murine; conditions: mouse, read-out: concentrations toxic to the cells
Excerpt: as §5
Cells were treated with up to 100 μg/ml of DSG for up to 72 h. Concentrations of DSG >50 μg/ml were toxic to most of the cell types tested. Since DSG is modified by polyamine oxidase present in fetal bovine serum (Tepper et al., supra.), cells were routinely replenished with fresh medium containing DSG and aminoguanidine every 24 h. As a control in some experiments, C127 cells were also treated with 5 mM sodium butyrate for 24 h. to enhance expression of ΔF508-CFTR (Cheng et al. (1995), supra.). As another control, cells were cultured at 23° C. for 24 to 48 h. to facilitate folding of the mutant ΔF508-CFTR at the ER.

[6] = tested on: ΔF508-CFTR (CFT1 cells); test: SPQ assay, cAMP-stimulated Cl- channel activity, CFT1 cells; format: cell-based, human
Protocol: as §1, §2

N=C(N)NCCCCCCC(=O)NC(O)C(=O)NCCCCNCCCN (stereo not drawn) [DSG, deoxyspergualin]
cAMP-stimulated Cl- channel activity, in words [1]: marginal; also recorded: Data similar to those described for C127-ΔF508-low cells | response in mock transfected cells ([2]; C127-mock cells, DSG treated): No response was observed | cells generating a measurable response ([2]; C127-ΔF508-low cells, SPQ, average of 5 experiments): Approximately 17% | cAMP-stimulated change in SPQ fluorescence / Cl- channel activity, in words ([2]; C127-ΔF508-low cells, DSG 10-100 μg/ml, sodium butyrate 5 mM 24 h, spermidine 5 μg/ml 72 h): marginal; also recorded: resulted in the appearance of functional cAMP-stimulated CFTR Cl^- channel activity at the cell surface; also recorded: gave a rapid change in fluorescence following stimulation with forskolin; also recorded: More optimal responses were observed in cells that were treated with lower concentrations of DSG compared to higher concentrations of DSG; also recorded: restored cAMP-stimulated anion efflux albeit to a lesser extent than was observed with sodium butyrate treatment; also recorded: less than that obtained with sodium butyrate | percentage of mature CFTR produced from CFTR-ΔF508 upon exposure to reduced temperatures [3]: increases upon exposure to reduced temperatures | cAMP-stimulated Cl- channel activity, in words ([4]; 72 h): more robust than that attained when cells were cultured at low temperature; also recorded: a greater number of responsive cells was observed when 10 μg/ml of DSG was used instead of 5 μg/ml; also recorded: no further significant increment in response was noted at concentrations higher than 10 μg/ml; also recorded: increased cAMP-mediated chloride channel activity; also recorded: comparable to that observed when these cells were cultured at a reduced temperature; also recorded: displayed cAMP-responsive Cl^- channel activity | percentage of mature CFTR produced from CFTRΔF508 upon exposure to reduced temperatures ([4]; FIG. 4): increases upon exposure to reduced temperatures | MCC at 72 h [5]: > 50 µg/mL | cAMP-stimulated Cl- channel activity, in words [6]: very similar results
